In ChEMBL document CHEMBL5463729, “Data for DCP probe BAY 1753011” (2023):

Key:
Conditions in all cases: Compound concentration 10.0 uM
[1] = biological target: Cytoplasmic tyrosine-protein kinase BMX (Homo sapiens) (UniProt P51813); experiment: Inhibition of Bmx(h) at 10.0 µM in the Eurofins Kinase panel
[2] = biological target: Cyclin-dependent kinase 14/Cyclin-Y (Homo sapiens) (UniProt O94921+Q8ND76); experiment: Inhibition of CDK14/cyclinY(h) at 10.0 µM in the Eurofins Kinase panel; assay type: protein-complex assay
[3] = biological target: Casein kinase I isoform alpha (Homo sapiens) (UniProt P48729); experiment: Inhibition of CK1alpha(h) at 10.0 µM in the Eurofins Kinase panel
[4] = biological target: Epithelial discoidin domain-containing receptor 1 (Homo sapiens) (UniProt Q08345); experiment: Inhibition of DDR1(h) at 10.0 µM in the Eurofins Kinase panel
[5] = biological target: Dual specificity tyrosine-phosphorylation-regulated kinase 3 (Homo sapiens) (UniProt O43781); experiment: Inhibition of DYRK3(h) at 10.0 µM in the Eurofins Kinase panel
[6] = biological target: Ephrin type-A receptor 1 (Homo sapiens) (UniProt P21709); experiment: Inhibition of EphA1(h) at 10.0 µM in the Eurofins Kinase panel
[7] = biological target: Ephrin type-A receptor 4 (Homo sapiens) (UniProt P54764); experiment: Inhibition of EphA4(h) at 10.0 µM in the Eurofins Kinase panel
[8] = biological target: Eukaryotic translation initiation factor 2-alpha kinase 1 (Homo sapiens) (UniProt Q9BQI3); experiment: Inhibition of HRI(h) at 10.0 µM in the Eurofins Kinase panel
[9] = biological target: Insulin receptor (Homo sapiens) (UniProt P06213); experiment: Inhibition of IR(h) at 10.0 µM in the Eurofins Kinase panel
[10] = biological target: Tyrosine-protein kinase ITK/TSK (Homo sapiens) (UniProt Q08881); experiment: Inhibition of Itk(h) at 10.0 µM in the Eurofins Kinase panel
[11] = biological target: Tyrosine-protein kinase Lck (Homo sapiens) (UniProt P06239); experiment: Inhibition of Lck(h) activated at 10.0 µM in the Eurofins Kinase panel
[12] = biological target: Mitogen-activated protein kinase kinase kinase kinase 4 (Homo sapiens) (UniProt O95819); experiment: Inhibition of MAP4K4(h) at 10.0 µM in the Eurofins Kinase panel
[13] = biological target: Mitogen-activated protein kinase kinase kinase kinase 5 (Homo sapiens) (UniProt Q9Y4K4); experiment: Inhibition of MAP4K5(h) at 10.0 µM in the Eurofins Kinase panel
[14] = biological target: MAP kinase-activated protein kinase 2 (Homo sapiens) (UniProt P49137); experiment: Inhibition of MAPK2(h) at 10.0 µM in the Eurofins Kinase panel
[15] = biological target: Serine/threonine-protein kinase MARK1 (Homo sapiens) (UniProt Q9P0L2); experiment: Inhibition of MARK1(h) at 10.0 µM in the Eurofins Kinase panel
[16] = biological target: Mitogen-activated protein kinase kinase kinase 10 (Homo sapiens) (UniProt Q02779); experiment: Inhibition of MLK2(h) at 10.0 µM in the Eurofins Kinase panel
[17] = biological target: Serine/threonine-protein kinase 26 (Homo sapiens) (UniProt Q9P289); experiment: Inhibition of MST4(h) at 10.0 µM in the Eurofins Kinase panel
[18] = biological target: NUAK family SNF1-like kinase 2 (Homo sapiens) (UniProt Q9H093); experiment: Inhibition of NUAK2(h) at 10.0 µM in the Eurofins Kinase panel
[19] = biological target: Receptor-interacting serine/threonine-protein kinase 2 (Homo sapiens) (UniProt O43353); experiment: Inhibition of RIPK2(h) at 10.0 µM in the Eurofins Kinase panel
[20] = biological target: Serine/threonine-protein kinase PLK2 (Homo sapiens) (UniProt Q9NYY3); experiment: Inhibition of Snk(h) at 10.0 µM in the Eurofins Kinase panel
[21] = biological target: Serine/threonine-protein kinase TAO3 (Homo sapiens) (UniProt Q9H2K8); experiment: Inhibition of TAO3(h) at 10.0 µM in the Eurofins Kinase panel
[22] = biological target: Tyrosine-protein kinase Tec (Homo sapiens) (UniProt P42680); experiment: Inhibition of Tec(h) activated at 10.0 µM in the Eurofins Kinase panel
[23] = biological target: Testis-specific serine/threonine-protein kinase 2 (Homo sapiens) (UniProt Q96PF2); experiment: Inhibition of TSSK2(h) at 10.0 µM in the Eurofins Kinase panel
[24] = biological target: Serine/threonine-protein kinase VRK2 (Homo sapiens) (UniProt Q86Y07); experiment: Inhibition of VRK2(h) at 10.0 µM in the Eurofins Kinase panel
[25] = biological target: 5-hydroxytryptamine receptor 2A (Homo sapiens) (UniProt P28223)
[26] = biological target: T1, 5-hydroxytryptamine receptor 3A (Homo sapiens) (UniProt P46098)
T1 sequence (whole entry): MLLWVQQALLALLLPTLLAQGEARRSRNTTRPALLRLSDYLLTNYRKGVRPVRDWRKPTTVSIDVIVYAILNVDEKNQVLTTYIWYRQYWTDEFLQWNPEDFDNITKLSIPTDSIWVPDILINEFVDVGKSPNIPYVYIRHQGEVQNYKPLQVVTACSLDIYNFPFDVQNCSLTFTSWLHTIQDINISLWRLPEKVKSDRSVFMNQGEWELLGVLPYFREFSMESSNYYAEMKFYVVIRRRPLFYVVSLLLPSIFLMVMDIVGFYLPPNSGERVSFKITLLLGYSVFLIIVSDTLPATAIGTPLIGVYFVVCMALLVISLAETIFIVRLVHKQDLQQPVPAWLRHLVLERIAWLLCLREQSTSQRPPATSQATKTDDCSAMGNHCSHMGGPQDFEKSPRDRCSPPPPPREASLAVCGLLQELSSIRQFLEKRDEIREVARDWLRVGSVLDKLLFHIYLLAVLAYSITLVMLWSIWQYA

[27] = biological target: 5-hydroxytryptamine receptor 5A (Homo sapiens) (UniProt P47898)
[28] = biological target: 5-hydroxytryptamine receptor 6 (Homo sapiens) (UniProt P50406)
[29] = biological target: Sodium-dependent serotonin transporter (Homo sapiens) (UniProt P31645)
[30] = biological target: Mu-type opioid receptor (Homo sapiens) (UniProt P35372)
[31] = biological target: Endothelin-1 receptor (Homo sapiens) (UniProt P25101)
[32] = biological target: Sodium-dependent dopamine transporter (Homo sapiens) (UniProt Q01959)
[33] = biological target: Beta-3 adrenergic receptor (Homo sapiens) (UniProt P13945)
[34] = biological target: Serine/threonine-protein kinase PAK 5 (Homo sapiens) (UniProt Q9P286); experiment: Inhibition of PAK5(h) at 10.0 µM in the Eurofins Kinase panel

5-hydroxytryptamine receptor 6 (Homo sapiens), sequence (P50406 whole entry): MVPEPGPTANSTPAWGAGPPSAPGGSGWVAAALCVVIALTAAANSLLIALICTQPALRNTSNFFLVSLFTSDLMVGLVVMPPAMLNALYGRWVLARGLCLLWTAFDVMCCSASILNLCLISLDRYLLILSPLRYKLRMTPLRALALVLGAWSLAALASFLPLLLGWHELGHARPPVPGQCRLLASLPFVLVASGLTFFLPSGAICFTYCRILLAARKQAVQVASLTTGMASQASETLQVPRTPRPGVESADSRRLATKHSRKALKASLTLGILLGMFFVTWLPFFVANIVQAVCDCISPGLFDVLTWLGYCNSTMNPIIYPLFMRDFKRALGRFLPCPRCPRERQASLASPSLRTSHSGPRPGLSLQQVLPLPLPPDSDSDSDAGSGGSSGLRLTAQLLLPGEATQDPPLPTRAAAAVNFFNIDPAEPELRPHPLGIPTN
Sodium-dependent serotonin transporter (Homo sapiens), sequence (P31645 whole entry, looked up): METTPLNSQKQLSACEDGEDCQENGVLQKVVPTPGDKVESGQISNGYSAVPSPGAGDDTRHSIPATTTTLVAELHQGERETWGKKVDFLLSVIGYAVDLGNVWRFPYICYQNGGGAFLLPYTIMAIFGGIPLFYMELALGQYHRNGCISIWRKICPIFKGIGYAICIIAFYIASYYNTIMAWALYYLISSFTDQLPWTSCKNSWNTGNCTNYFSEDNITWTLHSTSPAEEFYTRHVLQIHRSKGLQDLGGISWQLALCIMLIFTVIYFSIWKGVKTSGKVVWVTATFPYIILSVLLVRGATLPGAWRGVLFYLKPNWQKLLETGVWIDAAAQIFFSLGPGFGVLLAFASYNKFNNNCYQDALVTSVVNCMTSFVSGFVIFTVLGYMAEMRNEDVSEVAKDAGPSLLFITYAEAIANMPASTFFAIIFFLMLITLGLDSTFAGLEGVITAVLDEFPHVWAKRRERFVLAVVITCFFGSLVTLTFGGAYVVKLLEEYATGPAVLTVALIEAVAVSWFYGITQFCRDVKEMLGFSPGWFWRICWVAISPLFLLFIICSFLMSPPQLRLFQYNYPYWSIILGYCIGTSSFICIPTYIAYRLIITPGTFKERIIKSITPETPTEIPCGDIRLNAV
Mu-type opioid receptor (Homo sapiens), sequence (P35372 whole entry): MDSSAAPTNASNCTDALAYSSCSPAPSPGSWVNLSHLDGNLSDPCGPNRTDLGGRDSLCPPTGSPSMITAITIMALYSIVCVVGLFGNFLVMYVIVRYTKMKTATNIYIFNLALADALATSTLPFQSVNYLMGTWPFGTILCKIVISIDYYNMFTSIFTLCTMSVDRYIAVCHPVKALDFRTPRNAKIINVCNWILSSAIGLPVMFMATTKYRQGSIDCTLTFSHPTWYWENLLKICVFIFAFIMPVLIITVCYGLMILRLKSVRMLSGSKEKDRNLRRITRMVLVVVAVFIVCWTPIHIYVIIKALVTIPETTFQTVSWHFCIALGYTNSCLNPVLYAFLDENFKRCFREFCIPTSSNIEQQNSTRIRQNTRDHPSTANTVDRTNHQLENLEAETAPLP
5-hydroxytryptamine receptor 5A (Homo sapiens), sequence (P47898 whole entry): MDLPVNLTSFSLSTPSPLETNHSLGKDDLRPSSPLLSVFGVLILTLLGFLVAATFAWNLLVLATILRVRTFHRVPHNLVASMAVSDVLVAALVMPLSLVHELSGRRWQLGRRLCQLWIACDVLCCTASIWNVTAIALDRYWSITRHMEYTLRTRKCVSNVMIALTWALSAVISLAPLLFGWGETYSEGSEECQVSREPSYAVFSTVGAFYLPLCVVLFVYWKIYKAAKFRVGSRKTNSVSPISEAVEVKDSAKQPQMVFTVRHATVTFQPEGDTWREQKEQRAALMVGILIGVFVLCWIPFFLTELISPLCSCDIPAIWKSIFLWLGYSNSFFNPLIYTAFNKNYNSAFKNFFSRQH
5-hydroxytryptamine receptor 2A (Homo sapiens), sequence (P28223 whole entry): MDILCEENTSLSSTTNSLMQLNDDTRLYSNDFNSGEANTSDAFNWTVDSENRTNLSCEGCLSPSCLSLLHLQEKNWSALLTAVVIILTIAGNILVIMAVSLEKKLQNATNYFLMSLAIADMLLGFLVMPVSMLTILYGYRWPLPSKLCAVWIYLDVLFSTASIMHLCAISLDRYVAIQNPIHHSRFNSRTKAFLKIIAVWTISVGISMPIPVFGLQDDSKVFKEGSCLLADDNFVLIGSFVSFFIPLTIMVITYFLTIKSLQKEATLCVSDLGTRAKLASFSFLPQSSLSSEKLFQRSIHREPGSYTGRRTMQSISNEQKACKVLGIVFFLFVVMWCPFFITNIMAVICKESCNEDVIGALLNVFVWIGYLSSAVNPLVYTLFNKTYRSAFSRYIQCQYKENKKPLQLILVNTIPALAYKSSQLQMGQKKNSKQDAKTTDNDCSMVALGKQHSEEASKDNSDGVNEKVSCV
Insulin receptor (Homo sapiens), sequence (P06213 28-758 limits assumed): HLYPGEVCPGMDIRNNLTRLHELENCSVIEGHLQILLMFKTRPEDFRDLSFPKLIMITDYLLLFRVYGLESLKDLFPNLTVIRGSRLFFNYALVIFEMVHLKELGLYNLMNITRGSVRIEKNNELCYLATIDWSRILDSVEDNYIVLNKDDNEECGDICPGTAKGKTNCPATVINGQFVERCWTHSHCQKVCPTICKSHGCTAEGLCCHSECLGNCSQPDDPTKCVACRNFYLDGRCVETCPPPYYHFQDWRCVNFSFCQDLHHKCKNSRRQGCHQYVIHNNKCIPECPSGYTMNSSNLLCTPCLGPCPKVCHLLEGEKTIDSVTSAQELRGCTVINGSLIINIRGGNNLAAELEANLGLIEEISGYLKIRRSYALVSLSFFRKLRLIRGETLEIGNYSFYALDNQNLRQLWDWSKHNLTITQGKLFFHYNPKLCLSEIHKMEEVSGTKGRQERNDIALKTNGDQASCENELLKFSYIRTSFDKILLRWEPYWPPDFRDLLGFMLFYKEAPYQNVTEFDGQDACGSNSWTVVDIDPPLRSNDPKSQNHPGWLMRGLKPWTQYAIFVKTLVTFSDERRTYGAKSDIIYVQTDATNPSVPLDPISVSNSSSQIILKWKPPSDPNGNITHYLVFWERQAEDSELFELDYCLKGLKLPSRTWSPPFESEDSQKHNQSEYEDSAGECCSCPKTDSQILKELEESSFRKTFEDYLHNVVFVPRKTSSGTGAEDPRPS
Insulin receptor (Homo sapiens), sequence (P06213 763-1382 limits assumed): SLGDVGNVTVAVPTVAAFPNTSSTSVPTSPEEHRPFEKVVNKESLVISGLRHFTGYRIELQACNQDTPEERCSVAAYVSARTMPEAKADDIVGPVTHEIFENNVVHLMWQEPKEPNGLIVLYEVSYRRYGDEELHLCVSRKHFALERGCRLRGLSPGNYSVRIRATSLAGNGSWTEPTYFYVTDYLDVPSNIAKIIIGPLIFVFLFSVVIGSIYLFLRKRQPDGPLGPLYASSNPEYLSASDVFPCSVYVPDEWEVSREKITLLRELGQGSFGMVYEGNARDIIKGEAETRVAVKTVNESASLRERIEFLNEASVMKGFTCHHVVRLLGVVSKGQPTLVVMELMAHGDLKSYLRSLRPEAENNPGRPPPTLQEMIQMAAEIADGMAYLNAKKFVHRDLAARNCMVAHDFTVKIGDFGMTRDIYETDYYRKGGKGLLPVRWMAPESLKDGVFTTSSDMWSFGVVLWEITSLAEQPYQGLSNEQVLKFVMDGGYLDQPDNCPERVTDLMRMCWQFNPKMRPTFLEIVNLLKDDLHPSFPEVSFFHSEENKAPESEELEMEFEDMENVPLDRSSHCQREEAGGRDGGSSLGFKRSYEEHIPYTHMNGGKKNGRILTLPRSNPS
Ephrin type-A receptor 4 (Homo sapiens), sequence (P54764 whole entry): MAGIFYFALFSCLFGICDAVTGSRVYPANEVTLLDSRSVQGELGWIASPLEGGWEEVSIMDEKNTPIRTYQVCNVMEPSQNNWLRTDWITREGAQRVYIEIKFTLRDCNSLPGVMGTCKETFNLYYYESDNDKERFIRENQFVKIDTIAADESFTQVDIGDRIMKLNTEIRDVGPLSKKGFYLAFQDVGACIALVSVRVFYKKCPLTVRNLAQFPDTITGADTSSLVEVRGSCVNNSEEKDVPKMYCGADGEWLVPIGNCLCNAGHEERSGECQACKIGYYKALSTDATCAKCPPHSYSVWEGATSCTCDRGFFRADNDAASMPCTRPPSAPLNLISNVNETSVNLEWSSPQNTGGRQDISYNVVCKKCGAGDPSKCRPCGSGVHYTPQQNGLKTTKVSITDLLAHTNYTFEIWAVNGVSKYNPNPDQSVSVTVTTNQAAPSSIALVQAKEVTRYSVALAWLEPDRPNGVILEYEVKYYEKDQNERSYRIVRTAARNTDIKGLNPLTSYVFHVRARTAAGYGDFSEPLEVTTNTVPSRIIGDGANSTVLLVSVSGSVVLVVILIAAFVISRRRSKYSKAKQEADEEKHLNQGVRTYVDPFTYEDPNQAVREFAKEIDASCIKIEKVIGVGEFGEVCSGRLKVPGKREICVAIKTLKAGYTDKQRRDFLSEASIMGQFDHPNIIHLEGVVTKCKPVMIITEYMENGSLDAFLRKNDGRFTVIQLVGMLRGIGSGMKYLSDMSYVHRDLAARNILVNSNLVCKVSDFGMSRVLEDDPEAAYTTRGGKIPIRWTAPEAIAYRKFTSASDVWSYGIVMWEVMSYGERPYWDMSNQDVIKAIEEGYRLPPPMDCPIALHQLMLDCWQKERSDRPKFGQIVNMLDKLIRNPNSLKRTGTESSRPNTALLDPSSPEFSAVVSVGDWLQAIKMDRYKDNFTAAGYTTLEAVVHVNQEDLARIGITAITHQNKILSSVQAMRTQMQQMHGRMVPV
Casein kinase I isoform alpha (Homo sapiens), sequence (P48729 2-337 limits assumed): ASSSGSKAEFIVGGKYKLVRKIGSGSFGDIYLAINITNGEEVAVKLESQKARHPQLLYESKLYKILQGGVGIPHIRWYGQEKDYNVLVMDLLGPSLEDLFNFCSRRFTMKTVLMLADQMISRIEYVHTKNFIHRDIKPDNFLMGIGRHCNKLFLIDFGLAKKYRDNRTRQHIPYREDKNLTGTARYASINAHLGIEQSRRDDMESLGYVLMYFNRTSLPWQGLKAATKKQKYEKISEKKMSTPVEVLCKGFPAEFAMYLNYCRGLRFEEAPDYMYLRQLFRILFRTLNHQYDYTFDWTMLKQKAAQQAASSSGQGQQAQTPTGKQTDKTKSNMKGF

Compound	inhibition [1]	inhibition [2]	inhibition [3]	inhibition [4]	inhibition [5]	inhibition [6]	inhibition [7]	inhibition [8]	inhibition [9]	inhibition [10]	inhibition [11]	inhibition [12]	inhibition [13]	inhibition [14]	inhibition [15]	inhibition [16]	inhibition [17]	inhibition [18]	inhibition [19]	inhibition [20]	further results
O=c1n(Cc2cncn2-c2cccc(Cl)c2)nc(-c2ccc(Cl)cc2)n1C[C@H](O)C(F)(F)F	-7.7%	-0.16%	-1.11%	0.92%	-6.33%	2.94%	0.23%	-5.05%	-7.3%	-2.65%	2.09%	5.56%	-1.83%	11.3%	2.63%	0.43%	-4.66%	-1.01%	-2.28%	0.93%	inhibition [21]: 3.07%; inhibition [22]: 2.85%; inhibition [23]: 2.9%; inhibition [24]: 10.4%; inhibition [25]: -2.02%; inhibition [26]: -2.44%; inhibition [27]: -4.02%; inhibition [28]: 1.09%; inhibition [29]: 14.1%; inhibition [30]: 6.13%; inhibition [31]: -3%; inhibition [32]: 19%; inhibition [33]: 6%; inhibition [34]: 1.49%
C[C@H](O)c1nc(Cn2nc(-c3ccc(Cl)cc3)n(C[C@H](O)C(F)(F)F)c2=O)nn1-c1cccc(Cl)c1 [PECAVAPTAN]	-9.46%	-0.61%	-1.65%	7.3%	-1.79%	7.71%	-0.37%	6.64%	-5.21%	-7.19%	-0.21%	-1.46%	6.21%	11.1%	0.06%	4.18%	-2.72%	4.99%	-1.02%	-4.51%	inhibition [21]: 5.55%; inhibition [22]: -7.44%; inhibition [23]: -2.02%; inhibition [24]: 6.61%; inhibition [25]: 0.62%; inhibition [26]: -4.35%; inhibition [27]: 3.65%; inhibition [28]: 17.4%; inhibition [29]: 9.13%; inhibition [30]: 14.4%; inhibition [31]: 18%; inhibition [32]: 4%; inhibition [33]: -10%; inhibition [34]: -3.61%
